{
  "source": "paper PMC12668308",
  "about": "“A Novel Antimalarial Agent that Inhibits Protein Synthesis in Plasmodium falciparum” (Angewandte Chemie (International Ed. in English), 2025)",
  "test_in_all_cases": "iSPP profiling, P. falciparum lysate",
  "assay_type_in_all_cases": "binding, Plasmodium falciparum",
  "key": {"[1]": {"tested_on": "Eukaryotic translation initiation factor 3 subunit A (W7KD62)", "description": "(§1) P. falciparum NF54 lysates were extracted as described in ^[26^] . The parasite asynchronous culture was extracted once 3-5% parasitemia was reached. Saponin lysis was done as described in 2.2.10. Once the parasite pellet was obtained, 2.5 volumes of ice-cold lysis buffer (50 mM Tris/HCl pH 7.5 (Avantor), 5% glycerol (Sigma-Aldrich), 150 mM NaCl (Carl Roth), 1.5 mM MgCl2 (Sigma-Aldrich), 1 mM DTT (Carl Roth), 0.8% IGEPAL CA-630 (Sigma-Aldrich), 1X Halt Protease and Phosphatase Inhibitor-Cocktails EDTA-free (Thermo Fisher Scientific)) was added to the parasite pellet. The lysate solution was subjected to three cycles of flash freeze-thaw with liquid nitrogen and ddH2O at RT. The lysates were centrifuged at 20,000 g for 20 minutes at 4 °C. The soluble protein fraction (supernatant) was collected and the protein content was quantified using the BCA assay (Pierce™ BCA Protein Assay Kit, Thermo Fisher Scientific). The lysate was stored at -80 °C until further use.\n(§2) The P. falciparum lysate was thawed on ice and diluted to 0.8 mg/mL. […] Subsequently, the samples were incubated at room temperature for 30 minutes using a rotating mixer. After distribution into a 96-well plate, the samples were treated with increasing concentrations of A.E.A. (v/v) ranging from 14% to 28% (14, 16, 18, 20, 22, 24, 26, and 28%). Following a 20-minute incubation at 37°C with shaking at 750 rpm, the samples were centrifuged at 4400 g for 35 minutes to remove precipitated proteins. The soluble fractions were then pooled in equal volumes into a single sample using the Bravo Automated Liquid Handling Platform. The pooled samples were subsequently prepared for LC-MS/MS analysis.\n(§3) The raw LFQ-DIA intensity values of biological replicates across all conditions were normalized to the median abundance using Excel. The normalized values were then log2 transformed in Perseus (v2.0.10.0).^[58^] Missing values were imputed from a normal distribution (width 0.3, down shift 1.5), and p-values were obtained using a two-sample t-test over replicates with a permutation-based false discovery rate correction (FDR 0.05). Volcano plots were generated in RStudio using the EnhancedVolcano package (v. 1.20.0), ^[59^] plotting proteins by statistical significance (y-axis: –Log10 p-value) versus the magnitude of change (x-axis: log2 fold change of protein intensities for each compound condition relative to the vehicle control). The heatmap was generated in Perseus (v2.0.10.0). Dose-dependent curves were generated using normalized protein intensity values, expressed as a ratio to the vehicle control. Plots were created in GraphPad Prism (v8.3.0) using a nonlinear regression model."}, "[2]": {"tested_on": "60S ribosomal protein L4 (W7KB54)", "description": "as §1, §2, §3"}, "[3]": {"tested_on": "60S ribosomal protein L17 (W7KA36)", "description": "as §1, §2, §3"}, "[4]": {"tested_on": "PI3K/PI4K catalytic domain-containing protein (W7K7J6)", "description": "as §1, §2, §3"}, "[5]": {"tested_on": "ATP-dependent zinc metalloprotease FTSH (W7JKR1)", "description": "as §1, §2, §3"}, "[6]": {"tested_on": "AAA family ATPase (W7JWU4)", "description": "as §1, §2, §3"}, "[7]": {"tested_on": "40S ribosomal protein S4 (W7JT49)", "description": "as §1, §2, §3"}, "[8]": {"tested_on": "Phospholipid-transporting ATPase (W7JSF3;W7K4C4)", "description": "as §1, §2, §3"}, "[9]": {"tested_on": "40S ribosomal protein S24 (W7KAD9)", "description": "as §1, §2, §3"}, "[10]": {"tested_on": "Ubiquitin-protein ligase (W7JWT0)", "description": "as §1, §2, §3"}, "[11]": {"tested_on": "Uncharacterized protein (W7KIB1)", "description": "as §1, §2, §3"}, "[12]": {"tested_on": "60S ribosomal protein L18a (W7JPN9)", "description": "as §1, §2, §3"}, "[13]": {"tested_on": "DnaJ protein (W7JVI6)", "description": "as §1, §2, §3"}, "[14]": {"tested_on": "Uncharacterized protein (W7JXC3)", "description": "as §1, §2, §3"}, "[15]": {"tested_on": "dolichyl-diphosphooligosaccharide--protein glycotransferase (W7K3H0)", "description": "as §1, §2, §3"}},
  "data": [
    {"smiles": "CN1CCN(Cc2ccc(O)c(NC(=O)c3cccc(Oc4cc(C(F)(F)F)ccn4)c3)c2)CC1", "note": "[Compound 31, N-(2-hydroxy-5-((4-methylpiperazin-1-yl)methyl)phenyl)-3-((4-(trifluoromethyl)pyridin-2-yl)oxy)benzamide]", "values": [
      {"measurement": "log2FC", "setting": "[1]; 10 µM", "result": 0.35},
      {"measurement": "log2FC", "setting": "[1]; 50 µM", "result": 0.45},
      {"measurement": "log2FC", "setting": "[1]; 100 µM", "result": 0.31},
      {"measurement": "log2FC", "setting": "[1]; 10^-2 µM", "result": 0.30},
      {"measurement": "log2FC", "setting": "[1]; 10^-3 µM", "result": 0.15},
      {"measurement": "log2FC", "setting": "[2]; 10 µM", "result": 0.49},
      {"measurement": "log2FC", "setting": "[2]; 50 µM", "result": 0.63},
      {"measurement": "log2FC", "setting": "[2]; 100 µM", "result": 0.50},
      {"measurement": "log2FC", "setting": "[2]; 10^-2 µM", "result": 0.41},
      {"measurement": "log2FC", "setting": "[2]; 10^-3 µM", "result": 0.21},
      {"measurement": "log2FC", "setting": "[3]; 10 µM", "result": 0.35},
      {"measurement": "log2FC", "setting": "[3]; 50 µM", "result": 0.49},
      {"measurement": "log2FC", "setting": "[3]; 100 µM", "result": 0.40},
      {"measurement": "log2FC", "setting": "[3]; 10^-2 µM", "result": 0.30},
      {"measurement": "log2FC", "setting": "[3]; 10^-3 µM", "result": 0.17},
      {"measurement": "log2FC", "setting": "[4]; 10 µM", "result": 0.30},
      {"measurement": "log2FC", "setting": "[4]; 50 µM", "result": 0.44},
      {"measurement": "log2FC", "setting": "[4]; 100 µM", "result": 0.41},
      {"measurement": "log2FC", "setting": "[4]; 10^-2 µM", "result": 0.42},
      {"measurement": "log2FC", "setting": "[4]; 10^-3 µM", "result": 0.17},
      {"measurement": "log2FC", "setting": "[5]; 10 µM", "result": 0.49},
      {"measurement": "log2FC", "setting": "[5]; 50 µM", "result": 0.64},
      {"measurement": "log2FC", "setting": "[5]; 100 µM", "result": 0.46},
      {"measurement": "log2FC", "setting": "[5]; 10^-2 µM", "result": 0.46},
      {"measurement": "log2FC", "setting": "[5]; 10^-3 µM", "result": 0.20},
      {"measurement": "log2FC", "setting": "[6]; 10 µM", "result": 0.33},
      {"measurement": "log2FC", "setting": "[6]; 50 µM", "result": 0.46},
      {"measurement": "log2FC", "setting": "[6]; 100 µM", "result": 0.35},
      {"measurement": "log2FC", "setting": "[6]; 10^-2 µM", "result": 0.29},
      {"measurement": "log2FC", "setting": "[6]; 10^-3 µM", "result": 0.18},
      {"measurement": "log2FC", "setting": "[7]; 10 µM", "result": 0.53},
      {"measurement": "log2FC", "setting": "[7]; 50 µM", "result": 0.68},
      {"measurement": "log2FC", "setting": "[7]; 100 µM", "result": 0.62},
      {"measurement": "log2FC", "setting": "[7]; 10^-2 µM", "result": 0.39},
      {"measurement": "log2FC", "setting": "[7]; 10^-3 µM", "result": 0.19},
      {"measurement": "log2FC", "setting": "[8]; 10 µM", "result": 0.33},
      {"measurement": "log2FC", "setting": "[8]; 50 µM", "result": 0.36},
      {"measurement": "log2FC", "setting": "[8]; 100 µM", "result": 0.30},
      {"measurement": "log2FC", "setting": "[8]; 10^-2 µM", "result": 0.36},
      {"measurement": "log2FC", "setting": "[8]; 10^-3 µM", "result": 0.20},
      {"measurement": "log2FC", "setting": "[9]; 10 µM", "result": 0.51},
      {"measurement": "log2FC", "setting": "[9]; 50 µM", "result": 0.70},
      {"measurement": "log2FC", "setting": "[9]; 100 µM", "result": 0.57},
      {"measurement": "log2FC", "setting": "[9]; 10^-2 µM", "result": 0.44},
      {"measurement": "log2FC", "setting": "[9]; 10^-3 µM", "result": 0.27},
      {"measurement": "log2FC", "setting": "[10]; 10 µM", "result": 0.52},
      {"measurement": "log2FC", "setting": "[10]; 50 µM", "result": 0.87},
      {"measurement": "log2FC", "setting": "[10]; 100 µM", "result": 0.59},
      {"measurement": "log2FC", "setting": "[10]; 10^-2 µM", "result": 0.50},
      {"measurement": "log2FC", "setting": "[10]; 10^-3 µM", "result": 0.25},
      {"measurement": "log2FC", "setting": "[11]; 10 µM", "result": 1.08},
      {"measurement": "log2FC", "setting": "[11]; 50 µM", "result": 1.03},
      {"measurement": "log2FC", "setting": "[11]; 100 µM", "result": 0.88},
      {"measurement": "log2FC", "setting": "[11]; 10^-2 µM", "result": 1.16},
      {"measurement": "log2FC", "setting": "[11]; 10^-3 µM", "result": 0.39},
      {"measurement": "log2FC", "setting": "[12]; 10 µM", "result": 0.72},
      {"measurement": "log2FC", "setting": "[12]; 50 µM", "result": 1.09},
      {"measurement": "log2FC", "setting": "[12]; 100 µM", "result": 0.81},
      {"measurement": "log2FC", "setting": "[12]; 10^-2 µM", "result": 0.75},
      {"measurement": "log2FC", "setting": "[12]; 10^-3 µM", "result": 0.60},
      {"measurement": "log2FC", "setting": "[13]; 10 µM", "result": 0.38},
      {"measurement": "log2FC", "setting": "[13]; 50 µM", "result": 0.51},
      {"measurement": "log2FC", "setting": "[13]; 100 µM", "result": 0.40},
      {"measurement": "log2FC", "setting": "[13]; 10^-2 µM", "result": 0.30},
      {"measurement": "log2FC", "setting": "[13]; 10^-3 µM", "result": 0.12},
      {"measurement": "log2FC", "setting": "[14]; 10 µM", "result": 0.50},
      {"measurement": "log2FC", "setting": "[14]; 50 µM", "result": 0.70},
      {"measurement": "log2FC", "setting": "[14]; 100 µM", "result": 0.40},
      {"measurement": "log2FC", "setting": "[14]; 10^-2 µM", "result": 0.36},
      {"measurement": "log2FC", "setting": "[14]; 10^-3 µM", "result": 0.02},
      {"measurement": "log2FC", "setting": "[15]; 10 µM", "result": 0.53},
      {"measurement": "log2FC", "setting": "[15]; 50 µM", "result": 0.72},
      {"measurement": "log2FC", "setting": "[15]; 100 µM", "result": 0.44},
      {"measurement": "log2FC", "setting": "[15]; 10^-2 µM", "result": 0.59}
    ]}
  ]
}
